Source: US20260137697A1, “THIAZOLO[5,4-D]PYRIMIDINE COMPOUNDS, COMPOSITIONS COMPRISING THEM AND USES THEREOF” (University de Montreal, priority 2022, published 2026)

How the values were obtained:
BRAF = biological target: T1, BRAF (Homo sapiens, UniProt P15056); test: BRAF kinase activity assay (ADP-Glo); format: biochemical; details: Table 3; 10 μM ATP, kinase-dead MEK1 substrate
T1 construct: GST; purchased Millipore Sigma B4062-10UG
Experimental: (§1) Compound preparation: solid samples of each substance in 1dram vials were suspended in DMSO (Fisher Scientific) at a stock concentration of 20 mM. Stocks were kept at −20° C. and protected from light. If solubility of the compound at 20 mM appeared to be an issue, the initial concentration of the DMSO stock was changed to 10 mM or 5 mM.
(§2) In vitro enzymatic reactions were used for evaluating compounds intrinsic activity against BRAF, CRAF and ARAF. For BRAF and CRAF, 0.375 nM of purified GST-tagged kinases (cat. No. B4062-10UG and cat. No. R1656-10UG respectively from Millipore Sigma) were incubated with 75 nM of kinase-dead MEK1 substrate (cat. No. 40075; BPS Bioscience) in the presence of 10 μM of Ultrapure ATP (cat. No. V9102; Promega; part V915A) with and without the test compound in a buffer containing 50 mM HEPES pH 7.5, 10 mM MgCl2, 1 mM EDTA, 0.01% Brij-35 and 2 mM DTT. Separate reactions were performed with the MEK1 substrate and ATP as a blank control. ARAF kinase reactions were rigorously the same with the exception that kinase concentration was raised to 3.75 nM (cat. No. 1768-0000-1; Reaction Biology).
(§3) For compound treatment, 5 μL/well of test substance solution are placed in a 384-well proxyplate (Perkin Elmer) and mixed with 2× concentrated kinase reactions. The dilution series is selected so that nine concentrations cover a range from 100 nM to 0.01 nM. […] The final concentration of DMSO in the assay is set at 0.05%.
(§4) BRAF and CRAF kinase reactions were carried out for a total of 2 hours at 30° C. and then stopped by 1/2 dilution in ADP-Glo Reagent (cat. No. V9102; Promega; part V912C). Reactions were then incubated for 1 h at room temperature before addition of one volume of Kinase Detection Reagent (cat. No. V9102; Promega; part V917A). Plates were then equilibrated at room temperature for 30 minutes before detection of luminescence on a Synergy Neo2 plate reader (Biotek). The effect of each compound dilution on BRAF and CRAF kinase activity was expressed as % inhibition and calculated as follows. First, the internal 100% inhibition control (average of luminescence in kinase reactions comprising kinase dead MEK1 substrate alone) was subtracted from each data point. The average of DMSO (vehicle) controls (set as 0% inhibition) was established and used to calculate % inhibition:
(§5) IC50 values were obtained by plotting the kinase inhibition values and fitting the dose-activity curves using a log(agonist) versus response—variable slope (four parameters) function using either GraphPadPrism (V7.0) or Dotmatics Screening Ultra platform. Standards included in the ARAF kinase assay were Belvarafenib (MedChem Express cat. No. HY-109080; CAS No. 1446113-23-0), LXH254 (MedChem Express cat. No. HY-112089; CAS No. 1800398-38-2) and BGB283 (cat. No. HY-18957; CAS No. 1446090-79-4).

pERK, HCT116 cells = test: Phospho-ERK inhibition, AlphaLISA p-ERK 1/2, HCT-116; format: cell-based, human; details: Table 3; for IC50: HCT116 cells (KRAS G13D), 1 h treatment; for HCT116 pERK (Ymin %): lowest % inhibition value of the pERK IC50 curve, above −20% = no paradoxical induction
Experimental: All cancer cell lines (A375, A101D, A2058, RKO, HT29 SK-MEL 30, IPC298, HepG2, HCT-116, Lovo, SW620, SW480, NCI-H358, NCI-H2122, Calu-6, NCIH2087, NCIH1755, NCIH1666 and Mewo) were obtained from ATCC and cultured in RPM1-1640 medium (Gibco) supplemented with 5% heat inactivated fetal bovine serum (FBS, Wisent) at 37° C. under 5% CO2. Cells were maintained in T175 flasks (Greiner). They were passaged by removing the culture medium, washing once in 10 mL of room temperature Phosphate Buffered Saline (PBS; Wisent) and incubating at 37° C. with 2 mL of 0.05% Trypsin (Thermo-Fisher). Trypsin was then inactivated by adding complete growth medium and the cells were then replated in a T175 culture dish at the appropriate dilution. All cell lines were routinely tested for mycoplasma contamination. Tissue type and mutational status of each cell line can be found in Table B.
(c) Measurement of Phospho-ERK Inhibition in Cultivated Human Cancer Cell Lines by the AlphaLISA® SureFire® Ultra™ p-ERK 1/2 (Thr2O2/Tyr204)
AlphaLISA® SureFire® Ultra™ p-ERK 1/2 (Thr202/Tyr204) analysis was conducted on cells plated in 100 μL of complete RPMI-1640 growth medium in 96-well flat-bottomed transparent dishes (Costar) at a density indicated in Table C. Cells were maintained overnight at 37° C. under 5% CO2 before treatment with compounds' dilution series for one hour. The cell density in cells/cm^2 corresponds to cell number divided by the area of one well of a 96-well plate (0.143 cm^2).
In a dilution series 100 μL/well of test substance dilution prepared in complete RPMI-1640 growth media was added to the cells. The dilution series is selected so that ten concentrations cover a range from 10 μM to 0.33 nM. If necessary, the initial concentration of 10 μM is increased to 100 μM or lowered to 1 μM (as in the case of A375 and H1666 cells, which are generally more sensitive to the compounds) and further dilution is carried out accordingly. The final concentration of DMSO in the assay is set at 0.5%.
After treatment, media was removed, and cells were lysed in 50 μL of 1× AlphaScreen Ultra Lysis Buffer (Perkin Elmer). The AlphaLISA® SureFire® Ultra™ p-ERK 1/2 (Thr202/Tyr204) (PerkinElmer) reactions were performed with 5 μL of cell lysate according to the manufacturer's specifications in 384-well proxyplates (Perkin Elmer) followed by overnight incubation of the reactions at room temperature in a humidified chamber. After completion of the reactions, the signals were recorded on an EnVision plate reader (Perkin Elmer) using built in AlphaLISA® settings.
The effect of each compound dilution on the pERK signal was expressed in % inhibition and calculated as follows. An internal 100% inhibition control (1 μM trametinib, cat. No. HY-10999; MedChem Express; CAS No. 871700-17-3) was included in each plate and used as a measure of pERK background. First, the value obtained for trametinib was subtracted from each data point. The average of DMSO (vehicle) controls (set as 0% inhibition) was established and used to calculate % inhibition:
The ability of each compound to inhibit pERK signal was expressed as an IC50 value obtained by plotting the inhibition values for each data point of a dilution series and fitting the obtained curves using a log(agonist) versus response—variable slope (four parameters) function using GraphPadPrism (V7.0) or Dotmatics Screening Ultra platform.
When present, paradoxical pERK induction is inferred from the negative % inhibition values observed in the pERK IC50 curves of a compound.

CRAF = biological target: T2, CRAF (Homo sapiens, UniProt P04049); test: CRAF kinase activity assay (ADP-Glo); format: biochemical; details: Table 3; 10 μM ATP, kinase-dead MEK1 substrate
T2 construct: fused on or other part: GST tag (N-terminal according to the vendor's product)
Experimental: as §1, §2, §3, §4, §5

T1 sequence (P15056 whole entry): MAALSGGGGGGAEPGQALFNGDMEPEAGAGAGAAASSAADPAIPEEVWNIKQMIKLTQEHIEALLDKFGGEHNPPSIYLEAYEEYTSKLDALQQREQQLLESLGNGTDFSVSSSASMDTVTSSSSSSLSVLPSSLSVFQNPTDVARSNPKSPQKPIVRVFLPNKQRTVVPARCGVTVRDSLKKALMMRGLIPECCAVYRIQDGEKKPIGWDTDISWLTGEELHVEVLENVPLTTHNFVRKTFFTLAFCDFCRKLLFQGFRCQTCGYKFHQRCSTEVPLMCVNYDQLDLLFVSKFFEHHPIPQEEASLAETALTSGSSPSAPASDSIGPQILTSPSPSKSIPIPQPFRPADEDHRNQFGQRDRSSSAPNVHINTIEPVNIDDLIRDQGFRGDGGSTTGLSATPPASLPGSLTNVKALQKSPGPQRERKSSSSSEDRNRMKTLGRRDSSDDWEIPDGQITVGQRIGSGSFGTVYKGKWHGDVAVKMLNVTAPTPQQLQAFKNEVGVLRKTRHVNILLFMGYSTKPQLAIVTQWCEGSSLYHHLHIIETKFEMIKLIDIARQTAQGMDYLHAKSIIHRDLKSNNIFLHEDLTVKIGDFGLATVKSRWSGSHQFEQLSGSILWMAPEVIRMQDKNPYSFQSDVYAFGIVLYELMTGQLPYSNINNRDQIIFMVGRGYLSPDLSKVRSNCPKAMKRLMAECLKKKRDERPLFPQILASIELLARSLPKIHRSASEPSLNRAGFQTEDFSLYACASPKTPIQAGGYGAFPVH
T2 sequence (P04049 whole entry Y340E/Y341E, form open, the tested form may be a part): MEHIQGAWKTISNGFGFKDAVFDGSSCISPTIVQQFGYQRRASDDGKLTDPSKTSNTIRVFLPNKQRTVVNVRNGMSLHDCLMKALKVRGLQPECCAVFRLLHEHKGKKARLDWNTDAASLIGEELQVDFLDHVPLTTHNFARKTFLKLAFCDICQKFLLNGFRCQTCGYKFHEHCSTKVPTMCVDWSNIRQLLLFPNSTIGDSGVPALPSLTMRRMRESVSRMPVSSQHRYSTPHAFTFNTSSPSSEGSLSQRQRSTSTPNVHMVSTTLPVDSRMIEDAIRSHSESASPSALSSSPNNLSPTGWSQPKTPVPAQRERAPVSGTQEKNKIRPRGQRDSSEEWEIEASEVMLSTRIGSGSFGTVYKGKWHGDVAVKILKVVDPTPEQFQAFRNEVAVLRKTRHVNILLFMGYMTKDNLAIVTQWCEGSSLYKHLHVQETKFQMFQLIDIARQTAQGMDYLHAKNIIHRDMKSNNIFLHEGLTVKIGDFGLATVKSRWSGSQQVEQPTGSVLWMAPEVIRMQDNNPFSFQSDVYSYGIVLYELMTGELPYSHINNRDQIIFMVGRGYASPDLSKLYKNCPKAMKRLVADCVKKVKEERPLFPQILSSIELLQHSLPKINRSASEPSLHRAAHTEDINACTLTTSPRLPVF

| SMILES | IC50 (BRAF) [nM] | IC50 (pERK, HCT116 cells) [nM] | HCT116 pERK (Ymin %) (pERK, HCT116 cells) [%] | IC50 (CRAF) [nM] | IC50 (pERK, HCT116 cells; Homo sapiens, HCT-116) [nM] |
| --- | --- | --- | --- | --- | --- |
| Cc1c(F)cccc1S(=O)(=O)Nc1ccc(F)c(Nc2ncnc3sc(-n4cc(C(=O)N5CCC(CO)C5)c5ccccc54)nc23)c1F (stereo not drawn) [Example 33] | < 1 | < 500 | −7 | < 10 | – |
| Cc1c(F)cccc1S(=O)(=O)Nc1ccc(F)c(Nc2ncnc3sc(-n4nc(C(=O)N5C6CCC5COC6)c5ccccc54)nc23)c1F [Example 34] | > 10 | 1000 to 10000 | −13 | 10 to 50 | – |
| Cc1c(F)cccc1S(=O)(=O)Nc1ccc(F)c(Nc2ncnc3sc(-n4cnc5c(F)cccc54)nc23)c1F [Example 35] | 1 to 10 | < 500 | −8 | < 10 | – |
| Cc1c(Cl)cccc1S(=O)(=O)Nc1ccc(F)c(Nc2ncnc3sc(-n4cnc5c(F)cccc54)nc23)c1F [Example 36] | 1 to 10 | 1000 to 10000 | −13 | 10 to 50 | – |
| O=S(=O)(Nc1ccc(F)c(Nc2ncnc3sc(-n4cnc5ccccc54)nc23)c1F)c1ccccc1Cl [Example 37] | 1 to 10 | < 500 | −11 | < 10 | – |
| O=S(=O)(Nc1ccc(F)c(Nc2ncnc3sc(-n4cnc5c(F)cccc54)nc23)c1F)c1ccccc1Cl [Example 38] | 1 to 10 | 500 to 1000 | −6 | < 10 | – |
| Cc1c(F)cccc1S(=O)(=O)Nc1ccc(F)c(Nc2ncnc3sc(-n4nc(C(=O)N(C)CCN(C)C)c5ccccc54)nc23)c1F [Example 39] | < 1 | < 500 | −12 | < 10 | – |
| Cc1c(F)cccc1S(=O)(=O)Nc1ccc(F)c(Nc2ncnc3sc(-n4cc(C(=O)N5C6CCC5COC6)c5ccccc54)nc23)c1F [Example 40] | < 1 | < 500 | −7 | < 10 | – |
| CN(C)CCN(C)S(=O)(=O)c1cn(-c2nc3c(Nc4c(F)ccc(NS(=O)(=O)c5cccc(Cl)c5Cl)c4F)ncnc3s2)c2ccccc12 [Example 41] | < 1 | < 500 | 0 | < 10 | – |
| Cc1c(F)cccc1S(=O)(=O)Nc1ccc(F)c(Nc2ncnc3sc(-n4nc(C(=O)N5C6CCC5CN(C)C6)c5ccccc54)nc23)c1F [Example 42] | > 10 | 500 to 1000 | 2 | 10 to 50 | – |
| COCCN(C)C(=O)c1cn(-c2nc3c(Nc4c(F)ccc(NS(=O)(=O)c5cccc(F)c5C)c4F)ncnc3s2)c2ccccc12 [Example 43] | < 1 | < 500 | 9 | < 10 | – |
| CN(Cc1ccncc1)C(=O)c1cn(-c2nc3c(Nc4c(F)ccc(NS(=O)(=O)c5cccc(Cl)c5Cl)c4F)ncnc3s2)c2ccccc12 [Example 45] | < 1 | < 500 | −4 | < 10 | – |
| CN(Cc1cccnc1)C(=O)c1cn(-c2nc3c(Nc4c(F)ccc(NS(=O)(=O)c5cccc(Cl)c5Cl)c4F)ncnc3s2)c2ccccc12 [Example 46] | 1 to 10 | < 500 | 1 | < 10 | – |
| O=S(=O)(Nc1ccc(F)c(Nc2ncnc3sc(-n4cnc5cc(Cl)c(Cl)cc54)nc23)c1F)c1cccc(Cl)c1Cl [Example 47] | 1 to 10 | – | – | 10 to 50 | 1000 to 10000 |
| COCCN(C)S(=O)(=O)c1cn(-c2nc3c(Nc4c(F)ccc(NS(=O)(=O)c5cccc(Cl)c5Cl)c4F)ncnc3s2)c2ccccc12 [Example 48] | 1 to 10 | 500 to 1000 | 0 | 10 to 50 | – |
| O=S(=O)(Nc1ccc(F)c(Nc2ncnc3sc(-n4cnc5c(F)c(F)ccc54)nc23)c1F)c1cccc(Cl)c1Cl [Example 49] | 1 to 10 | – | – | < 10 | 500 to 1000 |
| CN(CCc1ccccn1)C(=O)c1cn(-c2nc3c(Nc4c(F)ccc(NS(=O)(=O)c5cccc(Cl)c5Cl)c4F)ncnc3s2)c2ccccc12 [Example 50] | < 1 | < 500 | 1 | < 10 | – |
